Values joined by “and” are separate entries in the source; they are usually repeats but may differ in a detail not shown here. Equal entries are not always repeated.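 In this assay, cells in 96-well plates receive the compound at five concentrations for 48 hours. Endpoints are linearly interpolated between the surrounding concentrations. GI50: concentration for 50% inhibition of growth. TGI denotes the concentration required for complete inhibition of growth.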
What was measured:
Assay in all cases: NCI tumour cell line growth inhibition, 48 h
ACHN renal = test system: ACHN renal
BT-549 breast = test system: BT-549 breast
CCRF-CEM leukemia = test system: CCRF-CEM leukemia
COLO 205 colon = test system: COLO 205 colon
HOP-92 NSCLC = test system: HOP-92 NSCLC
HT29 colon = test system: HT29 colon
LOX IMVI melanoma = test system: LOX IMVI melanoma
MOLT-4 leukemia = test system: MOLT-4 leukemia
NCI-H522 lung = test system: NCI-H522 lung
RXF 393 renal = test system: RXF 393 renal

SMILES | GI50 (ACHN renal) [µM] | TGI (ACHN renal) [µM] | GI50 (BT-549 breast) [µM] | TGI (BT-549 breast) | GI50 (CCRF-CEM leukemia) [µM] | TGI (CCRF-CEM leukemia) | GI50 (COLO 205 colon) [µM] | TGI (COLO 205 colon) [µM] | GI50 (HOP-92 NSCLC) [µM] | TGI (HOP-92 NSCLC) | GI50 (HT29 colon) [µM] | TGI (HT29 colon) | GI50 (LOX IMVI melanoma) [µM] | TGI (LOX IMVI melanoma) [µM] | GI50 (MOLT-4 leukemia) [µM] | TGI (MOLT-4 leukemia) [µM] | GI50 (NCI-H522 lung) [µM] | TGI (NCI-H522 lung) [µM] | GI50 (RXF 393 renal) [µM] | TGI (RXF 393 renal) [µM]
O=C(Nc1ccc(O)c(NS(=O)(=O)c2ccc(F)cc2)c1)c1ccc(-c2ccccc2)cc1 | 6.3 | 25.7 | 4.6 | 20.2 µM | 2.96 | 13 µM | 15.6 | 31.2 | 2.68 | 17.1 µM | 14.1 | 30.9 µM | 6.18 | 21.1 | 2.58 | 11 | 2.27 | 8.7 | 2.53 | 10.7
O=C(Nc1cccc(-n2cc(-c3ccncc3)c(-c3ccc(O)c(Cl)c3)n2)c1)c1ccc(N2CCOCC2)c(C(F)(F)F)c1 | 2.18 | > 50 | 2.35 | > 50 µM | 1.34 | > 50 µM | 4.62 | > 50 | 0.994 | 3.81 µM | 2.36 | > 50 µM | 1.61 | > 50 | 2.33 | > 50 | 2.22 | > 50 | 0.283 | 2.25
C/C=C(\C)C(=O)OC1C2C(C)C(=O)OC2C(O)C(C)C2C=CC(=O)C21C (stereo not given) |  | 26.8 |  | 25.2 µM |  | 35.1 µM |  | 26.3 |  | 50.5 µM |  | 32 µM |  | 28.5 |  | 33.7 |  | 12.5 |  | 24.5
CCCCC/C=C\C/C=C/CCCCCCCCNC(=O)Nc1ccc([N+](=O)[O-])cc1 | 6.8 | > 100 | 28.2 | 65.3 µM | 4.59 | > 100 µM | 15 | 28.9 | 4.27 | 35.4 µM | 25.1 | > 100 µM | 5.75 | > 100 | 5.68 | 41.4 | 11.5 | > 100 | 24.1 | 73.8
COc1cc([N+](=O)[O-])c(OC)cc1-c1nc2n(c1/C(N)=N/C(=N)N)CCS2 | 12.3 | > 100 | > 100 | > 100 µM | > 100 | > 100 µM | > 100 | > 100 | 41.9 | > 100 µM | > 100 | > 100 µM | 89.1 | > 100 | > 100 | > 100 | 47.7 | > 100 | 42.2 | > 100
CC#CC(=O)N[C@H]1CCCN(c2c(F)cc(C(N)=O)c3[nH]c(C)c(C)c23)C1 | 16.4 | 42.8 | 14.9 | 30.3 µM | 27.5 | 85 µM | 21.3 | 47 | 15.6 | 64.7 µM | 25 | 72.3 µM | 14.9 | 28.1 | 18.8 | 93.6 | 14.4 | 34.1 | 12.6 | 26.6
Cc1nc2sc(C(=O)Nc3cccc(Cl)c3C)c(N)c2cc1C(=O)c1ccccc1 | 0.344 | > 50 | 0.355 | > 13.6 µM | 0.18 | > 50 µM | 0.293 | 5.02 | 0.259 | > 23.7 µM | 0.202 | > 17.9 µM | 0.331 | > 50 | 0.254 | > 50 | 0.205 |  | 0.198 | 
COc1ccc(CCN2COc3ccc4ccc(=O)oc4c3C2)cc1OC |  | > 100 |  | > 100 µM |  | 54.8 µM |  | > 100 |  | > 100 µM |  | > 100 µM |  | 49.4 |  | > 100 |  | > 100 |  | > 100
O=C(NCc1cccs1)OC1CC2CCC1C2 (stereo not given) |  | > 100 |  | > 100 µM |  | > 100 µM |  | > 100 |  | > 100 µM |  | > 100 µM |  | > 100 |  | > 100 |  | > 100 |  | > 100
O=C(O)C1CCCCC1C(=O)Nc1nc2ccccc2[nH]1 (stereo not given) |  | > 100 |  | > 100 µM |  | > 100 µM |  | > 100 |  | > 100 µM |  | > 100 µM |  | > 100 |  | > 100 |  | > 100 |  | > 100
C/C=C1\C[C@@H]2C(OC)Nc3cc(O)c(OC)cc3C(=O)N2C1 (stereo not given in full) |  | 0.0294 |  | 0.0151 µM and 0.0269 µM | 0.00229 | 0.103 µM and 0.349 µM |  | 0.0212 | 0.00738 | 0.129 µM and < 0.0137 µM | 0.0075 | 0.16 µM and < 0.215 µM | 0.0035 | 0.0825 | 0.00248 | 0.225 | 0.00119 | 0.00432 | 0.00101 | 0.00219
CS(=O)(=O)c1ccc(-c2[nH]c3ccc(F)cc3c2/C=N/NC(N)=S)cc1 | 2.17 | > 100 | 1.61 | 34.4 µM | 0.366 | 27.2 µM | 1.47 | 5.14 | 0.574 | 52.9 µM | 0.558 | 15.2 µM | 0.84 | > 100 | 0.981 | 24 | 0.466 | 3.75 | 1.21 | 63.1
CCNC(=O)c1ccc2c(c1)nc(-c1ccc(Cl)cc1)n2-c1cc(C(C)(C)C)[nH]n1 | 3.48 | 13.2 | 4.53 | 18.2 µM | 2.94 | 40.7 µM | 3.5 | 14.4 | 1.36 | 7.77 µM | 3.13 | 9.71 µM | 3.54 | 14.4 | 3.49 | 25.1 | 2.7 | 9.6 | 1.81 | 5.55

— PubChem BioAssay (NCI)
